# Entries after “also recorded” stand apart in the source; their conditions may differ.
# How the values were obtained:
# Format in all cases: binding
# TIP60 = TIP60 (Homo sapiens, UniProt Q92993); assay: REMSA/EMSA with TIP60 protein; set-up: 5 μg of full length purified H2A.Z (Abcam) and TIP60 (SignalChem) proteins were incubated; purchased SignalChem; settings: in vitro, 32P-labeled oligonucleotide, purified TIP60; RNA and DNA probes at same molar concentration
# Protocol: (§1) RNA oligonucleotides (15 pmol) were end-labeled with [γ-^32P] ATP (Perkin Elmer) and T4 polynucleotide kinase (New England Biolabs). Reactions were incubated at 37° C. for 1 h and then passed through G-25 spin columns (GE Healthcare) according to the manufacturer's instructions to remove unincorporated radioactivity. Labeled samples were gel-purified on 10% polyacrylamide gels. Binding reactions were carried out in 10 μL volumes in the following buffer: 5 mM Tris pH 7.4, 5 mM MgCl2, 1 mM DTT, 3% v/v glycerol, 100 mM NaCl. 5 μg of full length purified H2A.Z (Abcam) and TIP60 (SignalChem) proteins were incubated with 1.1 nM of ^32P-labeled ss RNAs. All reactions were assembled on ice and then incubated at room temperature for 30 min. Samples were loaded onto 6% native polyacrylamide gels (0.5×TBE) at 4° C. for 3 h at 140 V. Various concentrations (1 μM-10 mM) of H2A.Z and K7 acetylated H2A.Z peptides (AnaSpec) were incubated with a fixed amount of probe in 50 mM Tris-HCl pH 7.5, 100 mM NaCl, 0.4 mM EDTA, and 40 U/ml RNasin, 1 mM DTT, 50% glycerol in a final volume of 10 μL. Thereafter, 1 μl glutaraldehyde (0.2% final concentration) was added into the mixture and incubated at room temperature for 15 minutes. Samples were loaded onto 10% native polyacrylamide gels (0.5×TBE) at 4° C. for 3 h at 170 V. All gels were dried upon fixation with Methanol and Acetic Acid and exposed to X-ray film.
# H2A.Z = biological target: T1, H2A.Z (Homo sapiens, UniProt P0C0S5); assay: RNA electrophoresis mobility shift assay (REMSA) with H2A.Z protein; settings: in vitro, 32P-labeled oligonucleotide, full length purified H2A.Z
# T1 construct: 5 μg of full length purified H2A.Z (Abcam) and TIP60 (SignalChem) proteins were incubated; purchased Abcam
# T1 sequence (P0C0S5 whole entry): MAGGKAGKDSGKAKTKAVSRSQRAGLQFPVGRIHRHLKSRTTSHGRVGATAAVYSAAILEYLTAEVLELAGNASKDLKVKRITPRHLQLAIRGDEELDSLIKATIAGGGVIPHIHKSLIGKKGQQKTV
# Protocol: as §1
# [1] = biological target: T2, H2A.Z and K7 acetylated H2A.Z peptides (Homo sapiens, UniProt P0C0S5); assay: REMSA with N-terminal H2A.Z peptides; settings: in vitro, synthetic peptides
# T2 construct: purchased AnaSpec
# T2 sequence (P0C0S5 2-21): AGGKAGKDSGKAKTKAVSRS
# Protocol: as §1
# Chain of TIP60 (Q92993 whole entry): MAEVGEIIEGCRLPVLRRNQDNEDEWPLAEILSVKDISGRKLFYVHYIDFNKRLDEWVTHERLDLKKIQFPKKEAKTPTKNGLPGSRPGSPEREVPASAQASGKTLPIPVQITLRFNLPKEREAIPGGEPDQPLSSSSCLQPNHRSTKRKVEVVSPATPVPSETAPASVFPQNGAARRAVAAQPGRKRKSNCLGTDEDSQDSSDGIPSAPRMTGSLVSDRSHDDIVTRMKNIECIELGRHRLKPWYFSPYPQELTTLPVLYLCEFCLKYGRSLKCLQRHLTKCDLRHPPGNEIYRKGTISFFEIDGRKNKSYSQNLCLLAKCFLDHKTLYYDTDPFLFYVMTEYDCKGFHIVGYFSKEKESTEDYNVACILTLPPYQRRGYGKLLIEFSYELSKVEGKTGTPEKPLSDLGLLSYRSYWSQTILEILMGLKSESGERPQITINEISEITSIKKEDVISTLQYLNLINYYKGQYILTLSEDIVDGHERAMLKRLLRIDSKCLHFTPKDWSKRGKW
Substance,complex formation with TIP60 (TIP60),RNP complex formation with H2A.Z (H2A.Z),"shift in migration with H2A.Z N-terminal peptides, unmodified and acetylated at lysine 7 [1]"
"DM9A: double-stranded DNA oligonucleotide of the same primary sequence as RM9A (sense GCCCTTTCCCCAGCCTTAGCGA; antisense TCGCTAAGGCTGGGGAAAGGGC; DNA, backbone and methylation of C not given here; further chemistry not fully specified)",stronger TIP60 binding to the RNAs than to the DNA,–,–
"DM2: DNA oligonucleotide duplex of the same primary sequence as UR2 (sense CTTTCCTCCACTCTCCCTGGGA; antisense TCCCAGGGAGAGTGGAGGAAAG; DNA, backbone and methylation of C not given here; further chemistry not fully specified)",weak complex formation,–,–
"UR2: unrelated RNA oligonucleotide lacking the common binding motif, SEQ ID NO 88 (CUUUCCUCCACUCUCCCUGGGA; RNA, backbone not given here; further chemistry not fully specified)",did not form detectable RNPs complexes,did not form detectable RNPs complexes,–
"Mut RM9A: mutated RM9A abolishing the predicted stem-loop structure, SEQ ID NO 86 (UUAUGUUAUUGUUUAUAUACGU; RNA, backbone not given here; further chemistry not fully specified)",did change the strength and the mobility of the RNA-TIP60 complexes,–,–
"RM9A: RNA oligonucleotide of common binding motif 9 in c-MYC SPEARs, 5′-GGCGUGGCGGUGGGCGCGCAGU-3′, SEQ ID NO 85 (GGCGUGGCGGUGGGCGCGCAGU; RNA, backbone not given here; further chemistry not fully specified)",able to form RNPs; also recorded: stronger TIP60 binding to the RNAs than to the DNA,able to form RNPs,A shift in migration was observed
"UR3: unrelated RNA oligonucleotide lacking the common binding motif, SEQ ID NO 89 (GCCCUUUCCCCAGCCUUAGCGA; RNA, backbone not given here; further chemistry not fully specified)",did not form detectable RNPs complexes,did not form detectable RNPs complexes,–
"DM3: DNA oligonucleotide duplex of the same primary sequence as UR3 (sense GGCGTGGCGGTGGGCGCGCAGT; antisense ACTGCGCGCCCACCGCCACGCC; DNA, backbone and methylation of C not given here; further chemistry not fully specified)",weak complex formation,–,–
"UR1: unrelated RNA oligonucleotide lacking the common binding motif, SEQ ID NO 87 (GCGCCCUGCAGCCUGGUACGCG; RNA, backbone not given here; further chemistry not fully specified)",did not form detectable RNPs complexes,did not form detectable RNPs complexes,–

# Reference: patent publication US20240209456A1, “METHODS AND COMPOSITIONS RELATED TO CELL-CYCLE RNA's” (BETH ISRAEL DEACONESS MEDICAL CENTER, priority 2021, published 2024)
